{"source": "patent US9550747B2", "about": "“Dapagliflozin crystalline form and preparation method thereof” (Jiangsu Hansoh Pharmaceutical Group Co., Ltd., priority 2014, dated 2017)", "key": {"[1]": {"settings": "21° C.±2° C./RH 45%±5%", "method": "(§1) The crystal resulting from Example 1 was placed under acceleration conditions for 6 months.\nConditions: 21° C.±2° C./RH 45%±5%\n(§2) Package: Two layers of low density polyethylene bag for medicinal use were sealed by hot-melt respectively, and desiccant was added. The bag was sealed and packaged with a pharmaceutical composite film bag of polyester/aluminum/polyamide/cast polypropylene."}, "[2]": {"settings": "30° C.±2° C./RH 65%±5%", "method": "as §1\nConditions: 30° C.±2° C./RH 65%±5%\nas §2"}, "[3]": {"experiment": "not given", "remark": "listed apart in the source"}}, "note": "Like-named read-outs stand apart in the source and are kept apart here.", "data": [{"compound": "CCOc1ccc(Cc2cc([C@@H]3O[C@H](CO)[C@@H](O)[C@H](O)[C@H]3O)ccc2Cl)cc1", "note": "[Example 1, 2-chloro-5-(β-D-glucopyranosyl-1-yl)-4′-ethoxy-diphenylmethane]", "values": [{"measurement": "hygroscope", "setting": "High humidity test 25° C./RH 75%, day 5", "value": 4.83, "unit": "%"}, {"measurement": "hygroscope", "setting": "High humidity test 25° C./RH 75%, day 10", "value": 4.84, "unit": "%"}, {"measurement": "hygroscope", "setting": "High humidity test 25° C./RH 95%, day 5", "value": 6.09, "unit": "%"}, {"measurement": "hygroscope", "setting": "High humidity test 25° C./RH 95%, day 10", "value": 6.71, "unit": "%"}, {"measurement": "HPLC Identification", "setting": "[1]; 3 Months", "value": "accordance"}, {"measurement": "Moisture Content (%)", "setting": "[1]; 3 Months", "value": 0.77, "unit": "%"}, {"measurement": "Related Substances Maximum Single Impurity (%)", "setting": "[1]; 3 Months", "value": 0.03, "unit": "%"}, {"measurement": "Related Substances Total Impurity (%)", "setting": "[1]; 3 Months", "value": 0.11, "unit": "%"}, {"measurement": "Specific Rotation", "setting": "[1]; 3 Months", "value": "+13.1°"}, {"measurement": "Total Content (%)", "setting": "[1]; 3 Months", "value": 99.8, "unit": "%"}, {"measurement": "XRPD", "setting": "[1]; 3 Months", "value": "accordance"}, {"measurement": "HPLC Identification", "setting": "[1]; 6 Months", "value": "accordance"}, {"measurement": "Moisture Content (%)", "setting": "[1]; 6 Months", "value": 0.80, "unit": "%"}, {"measurement": "Related Substances Maximum Single Impurity (%)", "setting": "[1]; 6 Months", "value": 0.03, "unit": "%"}, {"measurement": "Related Substances Total Impurity (%)", "setting": "[1]; 6 Months", "value": 0.13, "unit": "%"}, {"measurement": "Specific Rotation", "setting": "[1]; 6 Months", "value": "+12.9°"}, {"measurement": "Total Content (%)", "setting": "[1]; 6 Months", "value": 99.5, "unit": "%"}, {"measurement": "XRPD", "setting": "[1]; 6 Months", "value": "accordance"}, {"measurement": "quality indicators of the sample", "setting": "[1]; 6 Months", "value": "did not change significantly"}, {"measurement": "HPLC Identification", "setting": "[1]; time 0", "value": "accordance"}, {"measurement": "Moisture Content (%)", "setting": "[1]; time 0", "value": 0.76, "unit": "%"}, {"measurement": "Related Substances Maximum Single Impurity (%)", "setting": "[1]; time 0", "value": 0.04, "unit": "%"}, {"measurement": "Related Substances Total Impurity (%)", "setting": "[1]; time 0", "value": 0.11, "unit": "%"}, {"measurement": "Specific Rotation", "setting": "[1]; time 0", "value": "+13.3°"}, {"measurement": "Total Content (%)", "setting": "[1]; time 0", "value": 99.4, "unit": "%"}, {"measurement": "XRPD", "setting": "[1]; time 0", "value": "accordance"}, {"measurement": "HPLC Identification", "setting": "[2]; 1 Month", "value": "accordance"}, {"measurement": "Moisture Content (%)", "setting": "[2]; 1 Month", "value": 0.82, "unit": "%"}, {"measurement": "Related Substances Maximum Single Impurity (%)", "setting": "[2]; 1 Month", "value": 0.03, "unit": "%"}, {"measurement": "Related Substances Total Impurity (%)", "setting": "[2]; 1 Month", "value": 0.10, "unit": "%"}, {"measurement": "Specific Rotation", "setting": "[2]; 1 Month", "value": "+13.2°"}, {"measurement": "Total Content (%)", "setting": "[2]; 1 Month", "value": 99.6, "unit": "%"}, {"measurement": "XRPD", "setting": "[2]; 1 Month", "value": "accordance"}, {"measurement": "HPLC Identification", "setting": "[2]; 2 Months", "value": "accordance"}, {"measurement": "Moisture Content (%)", "setting": "[2]; 2 Months", "value": 0.81, "unit": "%"}, {"measurement": "Related Substances Maximum Single Impurity (%)", "setting": "[2]; 2 Months", "value": 0.03, "unit": "%"}, {"measurement": "Related Substances Total Impurity (%)", "setting": "[2]; 2 Months", "value": 0.11, "unit": "%"}, {"measurement": "Specific Rotation", "setting": "[2]; 2 Months", "value": "+13.0°"}, {"measurement": "Total Content (%)", "setting": "[2]; 2 Months", "value": 99.7, "unit": "%"}, {"measurement": "XRPD", "setting": "[2]; 2 Months", "value": "accordance"}, {"measurement": "HPLC Identification", "setting": "[2]; 3 Months", "value": "accordance"}, {"measurement": "Moisture Content (%)", "setting": "[2]; 3 Months", "value": 0.77, "unit": "%"}, {"measurement": "Related Substances Maximum Single Impurity (%)", "setting": "[2]; 3 Months", "value": 0.03, "unit": "%"}, {"measurement": "Related Substances Total Impurity (%)", "setting": "[2]; 3 Months", "value": 0.10, "unit": "%"}, {"measurement": "Specific Rotation", "setting": "[2]; 3 Months", "value": "+13.4°"}, {"measurement": "Total Content (%)", "setting": "[2]; 3 Months", "value": 99.3, "unit": "%"}, {"measurement": "XRPD", "setting": "[2]; 3 Months", "value": "accordance"}, {"measurement": "HPLC Identification", "setting": "[2]; 6 Months", "value": "accordance"}, {"measurement": "Moisture Content (%)", "setting": "[2]; 6 Months", "value": 0.81, "unit": "%"}, {"measurement": "Related Substances Maximum Single Impurity (%)", "setting": "[2]; 6 Months", "value": 0.03, "unit": "%"}, {"measurement": "Related Substances Total Impurity (%)", "setting": "[2]; 6 Months", "value": 0.13, "unit": "%"}, {"measurement": "Specific Rotation", "setting": "[2]; 6 Months", "value": "+13.3°"}, {"measurement": "Total Content (%)", "setting": "[2]; 6 Months", "value": 99.5, "unit": "%"}, {"measurement": "XRPD", "setting": "[2]; 6 Months", "value": "accordance"}, {"measurement": "quality indicators of the sample", "setting": "[2]; 6 Months", "value": "did not change significantly"}, {"measurement": "HPLC Identification", "setting": "[2]; time 0", "value": "accordance"}, {"measurement": "Moisture Content (%)", "setting": "[2]; time 0", "value": 0.76, "unit": "%"}, {"measurement": "Related Substances Maximum Single Impurity (%)", "setting": "[2]; time 0", "value": 0.04, "unit": "%"}, {"measurement": "Related Substances Total Impurity (%)", "setting": "[2]; time 0", "value": 0.11, "unit": "%"}, {"measurement": "Specific Rotation", "setting": "[2]; time 0", "value": "+13.3°"}, {"measurement": "Total Content (%)", "setting": "[2]; time 0", "value": 99.4, "unit": "%"}, {"measurement": "XRPD", "setting": "[2]; time 0", "value": "accordance"}]}, {"compound": "CCOc1ccc(Cc2cc([C@@H]3O[C@H](CO)[C@@H](O)[C@H](O)[C@H]3O)ccc2Cl)cc1", "note": "[crystal of the present invention, 2-chloro-5-(β-D-glucopyranosyl-1-yl)-4′-ethoxy-diphenylmethane]", "values": [{"measurement": "transformation of the crystal (XRPD)", "setting": "[3]; after grinding", "value": "does not result in transformation"}, {"measurement": "transformation of the crystal (XRPD)", "setting": "[3]; after pressing into a tablet, FIG. 2", "value": "no transformation"}]}]}
